In US7531545B2, “2-amino-3,4-dihydro-pyrido[3,4-d]pyrimidine derivatives useful as inhibitors of β-secretase (BACE)” (Janssen Pharmaceutica, N.V., priority 2005, dated 2009):

Target: human BACE-1 (Homo sapiens, UniProt P56817)
Assay: CEREP BACE Inhibition Assay
Format: biochemical
Details: recombinant enzyme; for inhibition at 0.3 µM / inhibition at 1 µM / % Inhibition @ 1.0 μM: percent inhibition of the control activity; for IC50: read-out: IC50; for inhibition at 1 µM: read-out: % Inhibition @ 1.0 μM
Experimental: More specifically the assay, run at 50 μL in a 96 well plate, evaluated the effect of test compound on the activity of the human BACE-1 quantified by measuring the formation of Mca-S-E-V-N-L-NH2 from […], using a recombinant enzyme. The test compound, reference compound or water (control) were added to a buffer containing 0.09 M sodium acetate (pH 4.5) and 0.25 μg BACE-1. Compound interference with the fluorimetric detection method due to autofluorescence was then checked by measurements at the wavelengths defined to evaluate the enzyme activity. […] For control basal measurement, the substrate was omitted from the reaction mixture. […] The standard inhibitory reference compound was OM99-2, which was tested in each experiment at several concentrations to obtain an inhibition curve from which its IC50 value was calculated.

human BACE-1, sequence (P56817 46-501): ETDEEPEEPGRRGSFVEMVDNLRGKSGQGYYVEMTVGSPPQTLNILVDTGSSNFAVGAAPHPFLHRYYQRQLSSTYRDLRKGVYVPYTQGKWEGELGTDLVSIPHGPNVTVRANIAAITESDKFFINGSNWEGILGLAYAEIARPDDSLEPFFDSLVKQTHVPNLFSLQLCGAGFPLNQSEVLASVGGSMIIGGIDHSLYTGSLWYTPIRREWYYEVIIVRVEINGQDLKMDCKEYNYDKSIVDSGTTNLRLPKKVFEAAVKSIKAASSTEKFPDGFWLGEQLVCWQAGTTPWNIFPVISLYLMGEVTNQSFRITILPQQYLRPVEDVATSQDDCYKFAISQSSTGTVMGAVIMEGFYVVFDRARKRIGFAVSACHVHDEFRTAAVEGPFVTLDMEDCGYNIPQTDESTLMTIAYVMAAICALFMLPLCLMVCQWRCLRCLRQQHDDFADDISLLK

Compound	IC50 [nM]	inhibition at 1 µM [%]	% Inhibition @ 1.0 μM [%]	inhibition at 0.3 µM [%]
CC(C)(C)OC[C@@H](NC(=O)CC[C@@H](C1CCCCC1)N1Cc2cc(Oc3ccccc3)ncc2N=C1N)C(=O)N1CCOCC1 [Compound 103, 4-(2-Amino-6-phenoxy-4H-pyrido[3,4-d]pyrimidin-3-yl)-N-(1-(R)-tert-butoxymethyl-2-morpholin-4-yl-2-oxo-ethyl)-4-(S)-cyclohexyl-butyramide]	82	–	–	96
CC(C)(C)OC[C@H](CO)NC(=O)CC[C@@H](C1CCCCC1)N1Cc2cc(Oc3ccccc3)ccc2N=C1N [Compound 107, 4-(2-Amino-6-phenoxy-4H-quinazolin-3-yl)-N-(1-(S)-tert-butoxymethyl-2-hydroxy-ethyl)-4-(S)-cyclohexyl-butyramide]	–	–	–	87
C[C@@H](CO)NC(=O)[C@@H](COC(C)(C)C)NC(=O)CC[C@@H](C1CCCCC1)N1Cc2cc(Oc3ccccc3)ncc2N=C1N [Compound 108]	140	–	–	94
CC(CO)NC(=O)C(COC(C)(C)C)NC(=O)CCC(C1CCCCC1)N1Cc2cc(Oc3ccccc3)ncc2N=C1N (centres unmarked) [Compound 109]	120	–	–	95
Cc1nc([C@H](COC(C)(C)C)NC(=O)CC[C@@H](C2CCCCC2)N2Cc3cc(Oc4ccccc4)ncc3N=C2N)no1 [Compound 110]	62	90	–	–
CC(C)(C)OC[C@@H](NC(=O)CC[C@@H](C1CCCCC1)N1Cc2cc(Oc3ccccc3)ncc2N=C1N)C(N)=O [Compound 111]	110	100	–	–
CC(C)(C)N(CCO)C(=O)CC[C@@H](C1CCCCC1)N1Cc2cc(Oc3ccccc3)ncc2N=C1N [Compound 115]	230	80	–	–
NC1=Nc2cnc(Oc3ccccc3)cc2CN1[C@@H](CCC(=O)NCCN1CCOCC1)C1CCCCC1 [Compound 116]	630	54	–	–
CN(CCc1ccccc1)C(=O)CC[C@@H](C1CCCCC1)N1Cc2cc(Oc3ccccc3)ncc2N=C1N [Compound 122, 4-(2-Amino-6-phenoxy-4H-pyrido[3,4-d]pyrimidin-3-yl)-4-(S)-cyclohexyl-N-methyl-N-phenethyl-butyramide]	–	97	–	–
NC1=Nc2cnc(Oc3ccccc3)cc2CN1[C@@H](CN1CC2(CCCCC2)NC1=O)C1CCCCC1 [Compound 135, 3-[2-(2-Amino-6-phenoxy-4H-pyrido[3,4-d]pyrimidin-3-yl)-2-(R)-cyclohexyl-ethyl]-1,3-diaza-spiro[4.5]decan-2-one]	200	52	–	–
CC(C)OC(=O)[C@H](COC(C)(C)C)NC(=O)CC[C@@H](C1CCCCC1)N1Cc2cc(Oc3ccccc3)ncc2N=C1N [Compound 136]	190	98	–	–
CC(C)(C)CCN(Cc1ccncc1)C(=O)CC[C@@H](C1CCCCC1)N1Cc2cc(Oc3ccccc3)ncc2N=C1N [Compound 137]	170	101	–	–
C[C@H](CO)N(CCC(C)(C)C)C(=O)CC[C@@H](C1CCCCC1)N1Cc2cc(Oc3ccccc3)ncc2N=C1N [Compound 138]	310	8	–	–
C[C@@H](CO)N(CCC(C)(C)C)C(=O)CC[C@@H](C1CCCCC1)N1Cc2cc(Oc3ccccc3)ncc2N=C1N [Compound 139]	200	94	–	–
CC(C)OC(=O)[C@@H](COC(C)(C)C)NC(=O)CC[C@@H](C1CCCCC1)N1Cc2cc(Oc3ccccc3)ncc2N=C1N [Compound 140, 2-[4-(2-Amino-6-phenoxy-4H-pyrido[3,4-d]pyrimidin-3-yl)-4-cyclohexyl-butyrylamino]-3-tert-butoxy-propionic acid isopropyl ester]	150	98	–	–
NC1=Nc2cnc(Oc3ccccc3)cc2CN1[C@@H](CCC(=O)N(CCO)Cc1cccs1)C1CCCCC1 [Compound 141]	120	98	–	–
COCCN(CCOC)C(=O)CC[C@@H](C1CCCCC1)N1Cc2cc(Oc3ccccc3)ncc2N=C1N [Compound 142]	200	90	–	–
NC1=Nc2cnc(Oc3ccccc3)cc2CN1[C@@H](CCC(=O)N1CCC[C@H]1CO)C1CCCCC1 [Compound 143]	1200	65	–	–
CC(C)(C)OC[C@H](CN)NCCC[C@@H](C1CCCCC1)N1Cc2cc(Oc3ccccc3)ncc2N=C1N [Compound 167, N^2-[4-(2-Amino-6-phenoxy-4H-pyrido[3,4-d]pyrimidin-3-yl)-4-cyclohexyl-butyl]-3-tert-butoxy-propane-1,2-diamine]	520	82	–	–
CC(C)(C)OC[C@H](CN)NC(=O)CC[C@@H](C1CCCCC1)N1Cc2cc(Oc3ccccc3)ncc2N=C1N [Compound 168, N-(2-Amino-1-tert-butoxymethyl-ethyl)-4-(2-amino-6-phenoxy-4H-pyrido[3,4-d]pyrimidin-3-yl)-4-cyclohexyl-butyramide]	–	101	–	–

Second part, led by results:

IC50 [nM]	inhibition at 1 µM [%]	% Inhibition @ 1.0 μM [%]	Compound	inhibition at 0.3 µM [%]
820	81	–	NC1=Nc2cnc(Oc3ccccc3)cc2CN1[C@@H](CCC(=O)N1CCC[C@@H]1CO)C1CCCCC1 [Compound 144]	–
57	99	–	CC(C)(C)CCN(CCNC(=O)OC(C)(C)C)C(=O)CC[C@@H](C1CCCCC1)N1Cc2cc(Oc3ccccc3)ncc2N=C1N [Compound 145]	–
72	100	–	CC(C)(C)CCN(CCN)C(=O)CC[C@@H](C1CCCCC1)N1Cc2cc(Oc3ccccc3)ncc2N=C1N [Compound 146]	–
180	100	–	CC(C)(C)CCN(CCNS(N)(=O)=O)C(=O)CC[C@@H](C1CCCCC1)N1Cc2cc(Oc3ccccc3)ncc2N=C1N [Compound 147, 4-(2-Amino-6-phenoxy-4H-pyrido[3,4-d]pyrimidin-3-yl)-4-(S)-cyclohexyl-N-(3,3-dimethyl-butyl)-N-(2-sulfamido-ethyl)-butyramide]	–
740	66	–	NC1=Nc2cnc(Oc3ccccc3)cc2CN1[C@@H](CCC(=O)N1CCC(c2ccccc2)CC1)C1CCCCC1 [Compound 149]	–
170	95	–	CC(C)(C)OC(=O)N1CCC(NC(=O)CC[C@@H](C2CCCCC2)N2Cc3cc(Oc4ccccc4)ncc3N=C2N)CC1 [Compound 150]	–
150	98	–	NC1=Nc2cnc(Oc3ccccc3)cc2CN1[C@@H](Cn1cc(C2CCCCC2)nn1)C1CCCCC1 [Compound 151]	–
88	99	–	CC(C)(C)c1cn(C[C@@H](C2CCCCC2)N2Cc3cc(Oc4ccccc4)ncc3N=C2N)nn1 [Compound 152, 3-[2-(4-tert-Butyl-[1,2,3]triazol-1-yl)-1-(R)-cyclohexyl-ethyl]-6-phenoxy-3,4-dihydro-pyrido[3,4-d]pyrimidin-2-ylamine]	–
110	102	–	CC(C)(C)OCCN(Cc1cccs1)C(=O)CC[C@@H](C1CCCCC1)N1Cc2cc(Oc3ccccc3)ncc2N=C1N [Compound 154]	–
84	100	–	CC(C)(C)OCCN(Cc1ccccn1)C(=O)CC[C@@H](C1CCCCC1)N1Cc2cc(Oc3ccccc3)ncc2N=C1N [Compound 155]	–
100	102	–	CC(C)(C)OCCN(Cc1ccsc1)C(=O)CC[C@@H](C1CCCCC1)N1Cc2cc(Oc3ccccc3)ncc2N=C1N [Compound 156]	–
130	102	–	CC(C)(C)OCCN(Cc1ccc(F)cc1)C(=O)CC[C@@H](C1CCCCC1)N1Cc2cc(Oc3ccccc3)ncc2N=C1N [Compound 158]	–
110	102	–	CC(C)(C)OCCN(Cc1cncs1)C(=O)CC[C@@H](C1CCCCC1)N1Cc2cc(Oc3ccccc3)ncc2N=C1N [Compound 159]	–
66	–	101	CC(C)(C)CNC(=O)CC[C@@H](C1CCCCC1)N1Cc2cc(Oc3ccccc3)ncc2N=C1N [Compound 160]	–
200	94	–	CC(C)(C)CNCCC[C@@H](C1CCCCC1)N1Cc2cc(Oc3ccccc3)ncc2N=C1N [Compound 161]	–
90	–	99	CC(C)(C)OCCN(Cc1ccccn1)C(=O)CC[C@@H](C1CCCCC1)N1Cc2cc(Oc3ccccc3)ncc2N=C1N [Compound 162]	–
200	85	–	NC1=Nc2cnc(Oc3ccccc3)cc2CN1[C@@H](CCC(=O)N1CCOCC1)C1CCCCC1 [Compound 166]	–
830	48	–	CN(C(=O)CCC(C1CCCCC1)N1Cc2cc(Oc3ccccc3)ncc2N=C1N)C1CCS(=O)(=O)C1 (centres unmarked) [Compound 170]	–
270	77	–	CN(CCO)C(=O)CC[C@@H](C1CCCCC1)N1Cc2cc(Oc3ccccc3)ncc2N=C1N [Compound 171]	–
170	99	–	Cn1c(CN(CCC(C)(C)C)C(=O)CC[C@@H](C2CCCCC2)N2Cc3cc(Oc4ccccc4)ncc3N=C2N)nc(Cl)c1Cl [Compound 172]	–
130	92	–	CCOCCCNC(=O)CC[C@@H](C1CCCCC1)N1Cc2cc(Oc3ccccc3)ncc2N=C1N [Compound 173]	–
86	100	–	CC(C)(C)CCN(CCN1CCOCC1)C(=O)CC[C@@H](C1CCCCC1)N1Cc2cc(Oc3ccccc3)ncc2N=C1N [Compound 174]	–
97	93	–	CC(C)[C@H](CCC(=O)N[C@H](C)CO)N1Cc2cc(Oc3ccccc3)ncc2N=C1N [Compound 175]	–
